Molecular target: T1, 6HIS-Tev-LRRK2 (1326-2527) (Homo sapiens, UniProt Q5S007)
T1 construct: A LRRK2 cDNA encoding residues 1326-2527 was received from Dundee University; made in house; host or cells: Spodoptera frugiperda Sf9 (baculovirus, pFB-HTb)
T1 sequence (Q5S007 1326-2527): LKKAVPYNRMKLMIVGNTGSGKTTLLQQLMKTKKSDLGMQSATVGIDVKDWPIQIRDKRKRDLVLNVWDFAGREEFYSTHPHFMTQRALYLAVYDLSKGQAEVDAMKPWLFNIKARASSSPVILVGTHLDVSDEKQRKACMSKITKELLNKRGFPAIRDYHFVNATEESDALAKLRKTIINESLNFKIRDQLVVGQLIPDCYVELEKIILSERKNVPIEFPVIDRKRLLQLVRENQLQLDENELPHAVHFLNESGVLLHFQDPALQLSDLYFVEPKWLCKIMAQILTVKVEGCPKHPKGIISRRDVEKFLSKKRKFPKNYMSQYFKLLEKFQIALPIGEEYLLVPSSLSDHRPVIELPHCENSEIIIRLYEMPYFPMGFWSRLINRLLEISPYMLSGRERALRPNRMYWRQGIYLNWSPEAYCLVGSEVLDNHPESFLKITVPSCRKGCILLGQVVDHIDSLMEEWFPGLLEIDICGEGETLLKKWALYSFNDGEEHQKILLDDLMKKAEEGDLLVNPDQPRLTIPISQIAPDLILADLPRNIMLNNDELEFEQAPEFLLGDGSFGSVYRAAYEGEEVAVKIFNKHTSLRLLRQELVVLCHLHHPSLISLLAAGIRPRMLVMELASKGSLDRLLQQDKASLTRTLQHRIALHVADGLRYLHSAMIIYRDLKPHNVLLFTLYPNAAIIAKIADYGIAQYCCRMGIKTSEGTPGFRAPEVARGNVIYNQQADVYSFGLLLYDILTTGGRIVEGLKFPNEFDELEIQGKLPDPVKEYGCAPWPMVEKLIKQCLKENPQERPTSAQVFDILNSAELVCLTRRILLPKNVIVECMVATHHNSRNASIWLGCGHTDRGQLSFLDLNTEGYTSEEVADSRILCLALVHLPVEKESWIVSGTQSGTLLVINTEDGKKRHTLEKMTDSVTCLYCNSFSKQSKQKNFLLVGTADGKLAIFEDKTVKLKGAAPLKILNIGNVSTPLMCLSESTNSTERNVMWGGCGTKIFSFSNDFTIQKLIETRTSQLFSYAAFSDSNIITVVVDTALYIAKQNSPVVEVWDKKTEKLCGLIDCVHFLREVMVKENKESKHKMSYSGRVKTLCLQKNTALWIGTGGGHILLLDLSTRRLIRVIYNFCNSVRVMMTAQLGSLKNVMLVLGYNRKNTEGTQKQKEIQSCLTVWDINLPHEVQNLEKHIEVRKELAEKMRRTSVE
Test: Recombinant LRRK2 enzyme peptide substrate TR-FRET assay
Assay type: biochemical
Conditions: 60 nM LRRK2 enzyme; 10 uM ATP; read-out: pIC50 in the recombinant LRRK2 enzyme peptide substrate TR-FRET assay (converted)
Experimental: A LRRK2 cDNA encoding residues 1326-2527 was received from Dundee University (described in M. Jaleel et al., 2007, Biochem J, 405: 407-417). This gene fragment was subcloned into pFB-HTb (Invitrogen) using BamHI and NotI restriction sites. The LRRK2 plasmid was recombined into the baculovirus genome according to the BAC-to-BAC protocol described by Invitrogen. Transfection into Spodoptera frugiperda (Sf9) insect cells was performed using Cellfectin (Invitrogen), according to the manufacturer's protocol to generate P1 and P2 baculovirus stocks.
Sf9 cells were grown in HyClone SFX (Thermo Scientific) growth media at 27° C., 80 rpm in shake flask until of a sufficient volume to inoculate a bioreactor. The cells were grown in a 20 liter working volume Wave bioreactor (GE Healthcare) at 27° C., 50% dissolved oxygen and an agitation rate 22 rocks per minute, 10 degree rock angle, 200 ml/min air with a cell concentration of approximately 6×e6 cells/ml. The cells were infected with P2 Baculovirus at a multiplicity of infection (MOI) of 3. The cultivation was continued for a 48 hour expression phase. The infected cells were removed from the growth media by centrifugation at 2500 g using a Sorvall RC 3C Plus centrifuge at 2500 g for 20 minutes. The cell pellet was immediately frozen and subsequently supplied for purification.
A 260 g pellet was allowed to thaw in a water bath at 27° C. with 800 ml lysis buffer/buffer A (50 mm Tris-HCl pH 8.5, 300 mM NaCl, 1 mm DTT, 10% glycerol, 1 ml/L calbiochem complete protease inhibitor cocktail and benzonase (50 ul/800 ml)) before being dounce homogenised on ice using 20 strokes per 100 ml. The suspension was packed in ice and sonicated at 50% amplitude for 3 min 10 sec on/off using a ¾″ probe. The suspension was then centrifuged at 100,000 g for 90 min, at 4° C.
The lysate (700 ml) was decanted from the insoluble pellet and contacted for 3 h at 4 C with 10 ml His bind Ni NTA resin by end over end mixing. The resin was recovered by centrifugation, 3000 g, 5 min at 4 C, and packed in an XK16 column. The column was then washed with 10 column volumes buffer A, 10 column volumes buffer B (buffer A+1M NaCl) and 10 column volumes buffer C (buffer A+20 mM imidazole). The column was then eluted with 15 column volumes buffer D (buffer A+300 mM imidazole) collecting 2 ml fractions. All washes and elution were conducted at 4 ml/min.
Fractions identified by SDS-PAGE as containing protein of interest were pooled and loaded directly onto a 320 ml SEC Superdex 200 pg column that was pre-equilibrated with buffer E (50 mM Tris-HCl pH 8.5, 300 mM NaCl, 10% glycerol, 1 mM DTT). The column was loaded and eluted with 1.2 column volumes buffer E at 2 ml/min collecting 2 ml fractions. Fractions identified by SDS-PAGE as containing protein of interest were tested for activity.
Production of Biotin-Loner LRRKtide
The peptide (biotin-[…]-OH) was assembled at a […] scale using FMOC solid phase peptide synthesis on an ACT 357 MPS automated peptide synthesizer. The resulting crude peptide was cleaved from the resin using a 95:2.5:2.5 mix of trifluoroacetic acid: triisopropylsilane: water. The crude cleaved peptide was purified by reverse phase HPLC, eluting with a 5-35% gradient of 0.1% trifluoroacetic acid/acetonitrile in 0.1% trifluoroacetic acid/water.
Recombinant LRRK2 Enzyme Peptide Substrate TR-FRET Assay
This assay for LRRK2 inhibition is based on the detection of phosphorylation of the peptide ‘longer LRRKtide’ (biotin-[…]-OH) using a time resolved-fluorescence resonance energy transfer (TR-FRET) assay. It uses an antibody labelled europium chelate donor, W-1024 (Eu) and Streptavidin-Surelight APC acceptor (APC). When in close proximity, the excitation of Eu at 330 nm leads to energy transfer to APC with emission of light at 665 nm,
Assay Protocol • 1. A 10 mM test compound was dissolved in 100% DMSO and serially diluted 1 in 4. […]

Structure (SMILES) | IC50 [nM]
CCOc1nc(Nc2cnn(C3CCCC3(C)O)c2C)nc2[nH]ccc12 (single isomer, unassigned) [Example E78, trans-2-(4-((4-ethoxy-7H-pyrrolo-[2,3-d]pyrimidin-2-yl)amino)-5-methyl-1H-pyrazol-1-yl)-1-methylcyclopentanol] | ≤ 100
CCOc1nc(Nc2cn(C3CCN(C)CC3)nc2C)nc2[nH]ccc12 [Example E19, 4-ethoxy-N-(3-methyl-1-(1-methylpiperidin-4-yl)-1H-pyrazol-4-yl)-7H-pyrrolo-[2,3-d]-pyrimidin-2-amine] | ≤ 100
Cc1c(Nc2nc(OCC3CC3)c3cn[nH]c3n2)cnn1CC(C)(C)O [Example E24, 1-(4-((4-(cyclopropylmethoxy)-1H-pyrazolo-[3,4-d]-pyrimidin-6-yl)amino)-5-methyl-1H-pyrazol-1-yl)-2-methylpropan-2-ol] | ≤ 100
